Source: ChEMBL document CHEMBL1135177 (Bioorg Med Chem Lett, 2002)

Assays:
Type in all cases: cell-based
[1] = target: T1, Muscarinic acetylcholine receptor M2 (Homo sapiens, UniProt P08172); assay: Binding affinity against human muscarine receptor (hM2) cloned in CHO cells
T1 sequence (P08172 whole entry): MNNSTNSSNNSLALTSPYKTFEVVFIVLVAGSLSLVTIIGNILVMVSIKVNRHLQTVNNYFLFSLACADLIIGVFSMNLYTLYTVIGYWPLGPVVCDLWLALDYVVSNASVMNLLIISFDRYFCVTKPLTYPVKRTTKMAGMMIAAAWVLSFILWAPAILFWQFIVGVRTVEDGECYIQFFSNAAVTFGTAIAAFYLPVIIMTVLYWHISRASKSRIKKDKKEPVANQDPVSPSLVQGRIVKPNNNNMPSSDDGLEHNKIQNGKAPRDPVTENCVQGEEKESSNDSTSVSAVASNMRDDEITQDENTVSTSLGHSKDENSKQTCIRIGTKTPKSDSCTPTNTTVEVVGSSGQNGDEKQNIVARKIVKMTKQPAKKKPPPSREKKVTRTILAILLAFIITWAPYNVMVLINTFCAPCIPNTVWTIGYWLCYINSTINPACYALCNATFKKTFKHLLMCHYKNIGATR

[2] = target: T2, Muscarinic acetylcholine receptor M1 (Homo sapiens, UniProt P11229); assay: Binding affinity against human muscarine receptor (hM1) cloned in CHO cells
T2 sequence (P11229 whole entry): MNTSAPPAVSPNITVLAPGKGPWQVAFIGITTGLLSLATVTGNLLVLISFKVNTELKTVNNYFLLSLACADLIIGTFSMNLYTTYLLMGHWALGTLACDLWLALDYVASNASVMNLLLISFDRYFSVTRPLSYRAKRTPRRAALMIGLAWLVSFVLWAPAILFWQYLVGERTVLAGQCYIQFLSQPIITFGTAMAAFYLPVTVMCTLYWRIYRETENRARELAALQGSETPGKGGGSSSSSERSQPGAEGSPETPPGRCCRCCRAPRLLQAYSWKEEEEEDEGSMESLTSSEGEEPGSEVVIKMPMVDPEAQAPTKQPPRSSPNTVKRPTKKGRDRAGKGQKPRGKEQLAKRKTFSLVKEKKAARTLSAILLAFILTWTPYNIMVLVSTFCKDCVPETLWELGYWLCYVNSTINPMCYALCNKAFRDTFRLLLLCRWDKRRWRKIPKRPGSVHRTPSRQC

[3] = target: T3, Muscarinic acetylcholine receptor M4 (Homo sapiens, UniProt P08173); assay: Binding affinity against human muscarine receptor (hM4) cloned in CHO cells
T3 sequence (P08173 whole entry): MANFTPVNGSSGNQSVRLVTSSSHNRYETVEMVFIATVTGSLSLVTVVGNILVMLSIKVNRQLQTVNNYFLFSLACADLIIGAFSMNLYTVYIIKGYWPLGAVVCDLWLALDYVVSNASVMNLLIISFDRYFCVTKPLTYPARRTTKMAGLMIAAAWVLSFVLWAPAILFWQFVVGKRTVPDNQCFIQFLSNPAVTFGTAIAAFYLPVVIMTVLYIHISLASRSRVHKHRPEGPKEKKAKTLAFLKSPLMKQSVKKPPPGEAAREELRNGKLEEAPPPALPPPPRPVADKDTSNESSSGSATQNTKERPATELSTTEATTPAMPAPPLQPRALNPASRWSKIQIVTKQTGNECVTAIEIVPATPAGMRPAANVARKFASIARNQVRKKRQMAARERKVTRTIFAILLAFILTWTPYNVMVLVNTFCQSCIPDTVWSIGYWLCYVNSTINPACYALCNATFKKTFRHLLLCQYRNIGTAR

[4] = target: Muscarinic acetylcholine receptor M3 (Homo sapiens, UniProt P20309); assay: Binding affinity against human muscarine receptor (hM3) cloned in CHO cells
Chain of Muscarinic acetylcholine receptor M3 (P20309 whole entry): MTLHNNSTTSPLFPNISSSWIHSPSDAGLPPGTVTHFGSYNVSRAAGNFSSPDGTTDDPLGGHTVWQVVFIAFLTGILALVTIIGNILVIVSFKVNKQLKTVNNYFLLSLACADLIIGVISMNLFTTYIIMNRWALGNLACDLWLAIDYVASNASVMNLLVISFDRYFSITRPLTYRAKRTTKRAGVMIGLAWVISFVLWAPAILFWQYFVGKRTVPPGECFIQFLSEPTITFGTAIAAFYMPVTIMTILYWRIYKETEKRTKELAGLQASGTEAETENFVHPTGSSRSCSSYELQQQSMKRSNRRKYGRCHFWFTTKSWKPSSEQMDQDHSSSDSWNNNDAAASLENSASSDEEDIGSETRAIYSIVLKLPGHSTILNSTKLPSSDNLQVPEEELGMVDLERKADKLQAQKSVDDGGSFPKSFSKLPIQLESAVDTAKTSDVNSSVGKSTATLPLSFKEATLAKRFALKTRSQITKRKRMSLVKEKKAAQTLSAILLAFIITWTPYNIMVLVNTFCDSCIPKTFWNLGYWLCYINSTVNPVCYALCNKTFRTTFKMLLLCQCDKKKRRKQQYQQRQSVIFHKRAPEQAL

SMILES	Ki [1] [nM]	Ki [2] [nM]	Ki [3] [nM]	Ki [4] [nM]
C[C@@H]1OC(=O)[C@@H]2C[C@@H]3CCCC[C@@H]3[C@@H](/C=C/[C@H]3CCC[C@H](C)N3C)[C@H]12	95.5	427		
C[C@@H]1OC(=O)[C@H]2C[C@H]3CCCC[C@H]3[C@H](C#C[C@H]3CCC[C@H](C)N3C)[C@@H]12	1150	5370	1740	5010
C[C@@H]1OC(=O)[C@H]2C[C@H]3CCCC[C@@H]3[C@@H](/C=C\[C@H]3CCC[C@H](C)N3C)[C@@H]12	1740	1510		
C[C@@H]1OC(=O)[C@@H]2C[C@@H]3CCCC[C@@H]3[C@@H](C#C[C@H]3CCC[C@H](C)N3C)[C@H]12	1170	3240	1950	11000
C[C@@H]1OC(=O)[C@H]2C[C@H]3CCCC[C@@H]3[C@@H](C#C[C@H]3CCC[C@H](C)N3C)[C@@H]12	309	3240	891	3310
C[C@@H]1OC(=O)[C@H]2C[C@H]3CCCC[C@@H]3[C@@H](/C=C/[C@H]3CCC[C@H](C)N3C)[C@@H]12 [HIMBACINE]	4.68	158		
C[C@@H]1OC(=O)[C@@H]2C[C@@H]3CCCC[C@@H]3[C@@H](/C=C\[C@H]3CCC[C@H](C)N3C)[C@H]12	676	2340		
C[C@@H]1OC(=O)[C@H]2C[C@H]3CCCC[C@H]3[C@H](/C=C\[C@H]3CCC[C@H](C)N3C)[C@@H]12	851	2570		
C[C@@H]1OC(=O)[C@H]2C[C@H]3CCCC[C@H]3[C@H](/C=C/[C@H]3CCC[C@H](C)N3C)[C@@H]12	170	1740		
